Data taken from ChEMBL document CHEMBL1759980, “Aza-annulation on the 16-dehydropregnenolone, via tandem intermolecular aldol process and intramolecular Michael addition” (Bioorg Med Chem Lett, 2011).
pIC50: −log10 of the molar value.

Key:
Dipeptidyl peptidase 4 [1] = molecular target: T1, Dipeptidyl peptidase 4 (Homo sapiens, UniProt P27487); experiment: Inhibition of human DPP-4 assessed as cleavage of substrate using H-Gly-Pro-pNA chromogenic substrate after 10 mins by double beam spectrophotometer
Target sequence in this assay (P27487 whole entry): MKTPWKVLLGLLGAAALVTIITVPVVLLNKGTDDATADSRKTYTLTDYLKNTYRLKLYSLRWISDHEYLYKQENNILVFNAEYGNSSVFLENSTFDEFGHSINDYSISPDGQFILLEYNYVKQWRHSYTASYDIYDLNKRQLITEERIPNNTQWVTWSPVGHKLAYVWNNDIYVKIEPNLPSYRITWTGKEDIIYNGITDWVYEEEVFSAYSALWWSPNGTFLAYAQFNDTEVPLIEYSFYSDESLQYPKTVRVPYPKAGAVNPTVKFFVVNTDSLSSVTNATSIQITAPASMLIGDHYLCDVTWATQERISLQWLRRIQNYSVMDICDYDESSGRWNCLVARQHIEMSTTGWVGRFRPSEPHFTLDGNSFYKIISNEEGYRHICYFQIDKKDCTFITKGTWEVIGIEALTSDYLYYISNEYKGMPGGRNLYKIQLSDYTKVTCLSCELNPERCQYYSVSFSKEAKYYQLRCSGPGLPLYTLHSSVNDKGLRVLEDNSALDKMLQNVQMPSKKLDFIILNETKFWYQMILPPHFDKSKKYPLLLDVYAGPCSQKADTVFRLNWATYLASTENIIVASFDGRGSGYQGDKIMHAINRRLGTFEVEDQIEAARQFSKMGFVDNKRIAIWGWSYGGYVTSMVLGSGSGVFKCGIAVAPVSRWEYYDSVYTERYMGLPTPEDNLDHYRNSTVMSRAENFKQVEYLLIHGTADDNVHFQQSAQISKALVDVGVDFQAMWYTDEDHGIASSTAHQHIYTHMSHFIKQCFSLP

Dipeptidyl peptidase 4 [2] = molecular target: T1, Dipeptidyl peptidase 4; experiment: Inhibition of human DPP-4 assessed as cleavage of substrate using H-Gly-Pro-pNA chromogenic substrate at 10 uM after 10 mins by double beam spectrophotometer
Target sequence in this assay (P27487 whole entry, looked up): as the sequence (P27487 whole entry) above

CCCN1C(c2ccc(OC)cc2)CC(=O)[C@H]2C1C[C@H]1[C@@H]3CC=C4C[C@@H](O)CC[C@]4(C)[C@H]3CC[C@]21C (stereo not given in full) was tested, and the pIC50 (Dipeptidyl peptidase 4 [1]) was 4.49 and the inhibition (Dipeptidyl peptidase 4 [2]) was 20.4%.
In the case of CC(=O)O[C@H]1CC[C@@]2(C)C(=CC[C@@H]3[C@@H]2CC[C@]2(C)C(C(C)=O)=CC[C@@H]32)C1, the pIC50 (Dipeptidyl peptidase 4 [1]) was 4.45 and the inhibition (Dipeptidyl peptidase 4 [2]) was 17.3%.
Compound CCCN1C(c2ccc(C(C)C)cc2)CC(=O)[C@H]2C1C[C@H]1[C@@H]3CC=C4C[C@@H](O)CC[C@]4(C)[C@H]3CC[C@]21C (stereo not given in full) has a pIC50 (Dipeptidyl peptidase 4 [1]) of 4.54 and an inhibition (Dipeptidyl peptidase 4 [2]) of 19.1%.
Compound CC(=O)[C@H]1C(NCc2ccccc2)C[C@H]2[C@@H]3CC=C4C[C@@H](O)CC[C@]4(C)[C@H]3CC[C@]12C (stereo not given in full) has a pIC50 (Dipeptidyl peptidase 4 [1]) of 4.67 and an inhibition (Dipeptidyl peptidase 4 [2]) of 28.4%.
COc1ccc(/C=C/C(=O)C2=CC[C@H]3[C@@H]4CC=C5C[C@@H](O)CC[C@]5(C)[C@H]4CC[C@]23C)cc1OC gave a pIC50 (Dipeptidyl peptidase 4 [1]) of 4.58 and an inhibition (Dipeptidyl peptidase 4 [2]) of 24.1%.
